Experimental data reported in paper PMC6661812, “Synthesis, biological activity and molecular docking of new tricyclic series as α-glucosidase inhibitors” (BMC Chemistry, 2019).

Key:
[1] = molecular target: α-glucosidase enzyme type 1 from Baker’s yeast (Saccharomyces cerevisiae, UniProt P53341); test: α-Glucosidase inhibitory assay (p-NPG substrate, absorbance at 405 nm); format: biochemical; settings: for inhibition at 100 µg/mL: 100 µg/mL of each compound, test repeated three times, read-out: average percent inhibition of α-glucosidase; for IC50: mean of three experiments ± SEM, more than five concentrations
Description: Phosphate-buffered saline pH 6.5 was prepared at 20 °C by dissolving sodium phosphate monobasic (1.4 g), sodium chloride (8 g), potassium chloride (0.2 g) and potassium dihydrogen phosphate (0.2 g) in deionized water (1 L). The solution was adjusted to pH 6.5 at 20 °C with 1 M sodium hydroxide (NaOH) or hydrochloric acid (HCl). A 20-mM solution of para-nitrophenyl-α-D-glucopyranoside (p-NPG substrate) was prepared by dissolving […] of p-NPG in 10 mL of buffer solution. The α-glucosidase enzyme solution was prepared by dissolving α-glucosidase enzyme type 1 from Baker’s yeast (1 mg) in cold phosphate-buffered saline (1000 µL), pH 6.5; 50 µL of this solution was mixed into 12 mL of cold phosphate-buffered saline to give a concentration of 0.125 unit/mL. For the screening of samples, 200 µg/mL concentration was prepared in 100% dimethyl sulfoxide (DMSO). Then, two-fold serial dilutions with 5% DMSO were prepared in a 96-well microplate to give final concentrations of 100, 50, 25, 12.5, 6.25, 3.13 and 1.56 µg/mL. […]
A volume of 10 µL of 5% DMSO was added to the 96 wells of the microplate. Then, 10 µL of the stock sample was added to the first well and mixed. Subsequently, 10 µL of the sample from the first well was taken and added to the second well and this procedure was repeated for the two-fold serial dilutions. Next, 20 µL of the α-glucosidase enzyme, 40 µL of phosphate buffered saline at pH 6.5 and 20 µL of deionized water were added to each well in the 96-well microtiter plate and mixed. The mixture was pre-incubated at 37 °C for 10 min. Then, 10 µL of 20 mM p-NPG solution was added to the mixture and the absorbance at 0 min. was measured at 405 nm. The reaction was incubated for 30 min. at 37 °C and the absorbance was then measured. […] Experiments were performed in triplicate. The inhibition activity of α-glucosidase was determined based on the described method by Ahmad et al.. The percent inhibition (%) of α-glucosidase inhibitory activity was calculated using the equation: %inhibition=A30min-A0mincontrol-A30min-A0minexp/A30min-A0mincontrol×100\%
IC50 values are the mean values of three experiments represented as SEM (n = 3). […] Statistical analysis using one-way ANOVA was applied to the results. Nonlinear regression analysis using a four-parameter logistic curve was performed to calculate the IC50 values. The statistical software used were Microsoft Excel 2010 and Sigma Plot (version 14.0 Notebook, Systat Software Inc.).

α-glucosidase enzyme type 1 from Baker’s yeast, sequence (P53341 whole entry): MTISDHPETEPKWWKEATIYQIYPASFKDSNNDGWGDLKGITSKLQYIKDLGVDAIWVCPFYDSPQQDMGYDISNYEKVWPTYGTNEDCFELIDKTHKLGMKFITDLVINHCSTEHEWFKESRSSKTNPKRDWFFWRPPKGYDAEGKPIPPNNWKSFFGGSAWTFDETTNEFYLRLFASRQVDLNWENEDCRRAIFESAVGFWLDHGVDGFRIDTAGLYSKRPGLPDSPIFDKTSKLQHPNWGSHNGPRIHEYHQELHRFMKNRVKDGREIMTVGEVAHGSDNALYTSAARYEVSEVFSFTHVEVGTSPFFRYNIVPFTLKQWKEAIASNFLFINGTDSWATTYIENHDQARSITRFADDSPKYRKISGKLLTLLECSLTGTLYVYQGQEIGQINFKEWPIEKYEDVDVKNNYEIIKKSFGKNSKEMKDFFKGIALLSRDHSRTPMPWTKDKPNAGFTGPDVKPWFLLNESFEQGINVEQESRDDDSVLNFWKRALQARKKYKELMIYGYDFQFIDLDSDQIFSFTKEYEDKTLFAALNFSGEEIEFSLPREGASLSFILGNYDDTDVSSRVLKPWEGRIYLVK

SMILES	melting point [°C]	inhibition at 100 µg/mL [1] [%]	IC50 [1] [µM]
O=c1[nH]c2nc(Oc3ccccc3)nn2c2ncccc12 [Compound 1, 2-phenoxypyrido[3,2-e][1,2,4]triazolo[1,5-a]pyrimidin-5(4H)-one]	252 to 254	–	–
COc1ccc(Nc2nc3nc(Oc4ccccc4)nn3c3ncccc23)cc1 [Compound 6c, N-(4-Methoxyphenyl)-2-phenoxypyrido[3,2-e][1,2,4]triazolo[1,5-a]pyrimidin-5-amine]	174 to 176	> 60	177
O=c1c2cccnc2n2nc(Oc3ccccc3)nc2n1CCN1CCOCC1 [Compound 2j, 4-(2-Morpholinoethyl)-2-phenoxypyrido[3,2-e][1,2,4]triazolo[1,5-a]pyrimidin-5(4H)-one]	169 to 171	–	–
O=c1c2cccnc2n2nc(Oc3ccccc3)nc2n1CCN1CCCCC1 [Compound 2k, 2-Phenoxy-4-(2-(piperidin-1-yl)ethyl)pyrido[3,2-e][1,2,4]triazolo[1,5-a]pyrimidin-5(4H)-one]	200 to 202	–	–
c1ccc(Nc2nc3nc(Oc4ccccc4)nn3c3ncccc23)cc1 [Compound 6a, 2-Phenoxy-N-phenylpyrido[3,2-e][1,2,4]triazolo[1,5-a]pyrimidin-5-amine]	251 to 253	> 50	154
S=c1[nH]c2nc(Oc3ccccc3)nn2c2ncccc12 [Compound 3, 2-phenoxypyrido[3,2-e][1,2,4]triazolo[1,5-a]pyrimidine-5(4H)-thione]	270 to 272	> 60	168
Cc1ccccc1Cn1c(=O)c2cccnc2n2nc(Oc3ccccc3)nc12 [Compound 2d, 4-(2-Methylbenzyl)-2-phenoxypyrido[3,2-e][1,2,4]triazolo[1,5-a]pyrimidin-5(4H)-one]	160 to 162	> 50	174
COc1cccc(Cn2c(=O)c3cccnc3n3nc(Oc4ccccc4)nc23)c1 [Compound 2f, 4-(3-Methoxybenzyl)-2-phenoxypyrido[3,2-e][1,2,4]triazolo[1,5-a]pyrimidin-5(4H)-one]	189 to 191	–	–
C=CCn1c(=O)c2cccnc2n2nc(Oc3ccccc3)nc12 [Compound 2b, 4-Allyl-2-phenoxypyrido[3,2-e][1,2,4]triazolo[1,5-a]pyrimidin-5(4H)-one]	170 to 172	–	–
CCn1c(=O)c2cccnc2n2nc(Oc3ccccc3)nc12 [Compound 2a, 4-Ethyl-2-phenoxypyrido[3,2-e][1,2,4]triazolo[1,5-a]pyrimidin-5(4H)-one]	173 to 175	> 50	304
O=c1c2cccnc2n2nc(Oc3ccccc3)nc2n1Cc1ccc([N+](=O)[O-])cc1 [Compound 2h, 4-(4-Nitrobenzyl)-2-phenoxypyrido[3,2-e][1,2,4]triazolo[1,5-a]pyrimidin-5(4H)-one]	150 to 152	–	–
Cc1ccc(Nc2nc3nc(Oc4ccccc4)nn3c3ncccc23)cc1 [Compound 6b, 2-Phenoxy-N-(p-tolyl)pyrido[3,2-e][1,2,4]triazolo[1,5-a]pyrimidin-5-amine]	162 to 164	> 50	207
O=c1c2cccnc2n2nc(Oc3ccccc3)nc2n1Cc1ccccc1 [Compound 2c, 4-Benzyl-2-phenoxypyrido[3,2-e][1,2,4]triazolo[1,5-a]pyrimidin-5(4H)-one]	195 to 197	–	–
COc1cccc(CSc2nc3nc(Oc4ccccc4)nn3c3ncccc23)c1 [Compound 4, 5-((3-methoxybenzyl)thio)-2-phenoxypyrido[3,2-e][1,2,4]triazolo[1,5-a]pyrimidine]	149 to 151	–	–
CCOc1ccc(Nc2nc3nc(Oc4ccccc4)nn3c3ncccc23)cc1 [Compound 6d, N-(4-Ethoxyphenyl)-2-phenoxypyrido[3,2-e][1,2,4]triazolo[1,5-a]pyrimidin-5-amine]	154 to 156	> 60	139
COc1ccccc1/C=N/Nc1nc2nc(Oc3ccccc3)nn2c2ncccc12 [Compound 6h, (E)-5-(2-(2-Methoxybenzylidene)hydrazinyl)-2-phenoxypyrido[3,2-e][1,2,4]triazolo[1,5-a]pyrimidine]	111 to 113	> 50	104
Clc1nc2nc(Oc3ccccc3)nn2c2ncccc12 [Compound 5, 5-chloro-2-phenoxypyrido[3,2-e][1,2,4]triazolo[1,5-a]pyrimidine]	190 to 192	–	–
Cc1cccc(Cn2c(=O)c3cccnc3n3nc(Oc4ccccc4)nc23)c1 [Compound 2e, 4-(3-Methylbenzyl)-2-phenoxypyrido[3,2-e][1,2,4]triazolo[1,5-a]pyrimidin-5(4H)-one]	181 to 183	–	–
O=c1c2cccnc2n2nc(Oc3ccccc3)nc2n1Cc1ccc(Cl)cc1 [Compound 2i, 4-(4-Chlorobenzyl)-2-phenoxypyrido[3,2-e][1,2,4]triazolo[1,5-a]pyrimidin-5(4H)-one]	144 to 146	–	–

Second part, led by results:

melting point [°C]	SMILES	inhibition at 100 µg/mL [1] [%]	IC50 [1] [µM]
241 to 243	NNc1nc2nc(Oc3ccccc3)nn2c2ncccc12 [Compound 6f, 5-hydrazinyl-2-phenoxypyrido[3,2-e][1,2,4]triazolo[1,5-a]pyrimidine]	–	–
220 to 222	COc1ccc(O)c(/C=N/Nc2nc3nc(Oc4ccccc4)nn3c3ncccc23)c1 [Compound 6g, (E)-4-Methoxy-2-((2-(2-phenoxypyrido[3,2-e][1,2,4]triazolo[1,5-a]pyrimidin-5-yl)hydrazono)methyl)phenol]	–	–
249 to 251	ONc1nc2nc(Oc3ccccc3)nn2c2ncccc12 [Compound 6e, N-(2-phenoxypyrido[3,2-e][1,2,4]triazolo[1,5-a]pyrimidin-5-yl)hydroxylamine]	–	–
163 to 165	O=C(NNc1nc2nc(Oc3ccccc3)nn2c2ncccc12)c1ccncc1 [Compound 6i, N’-(2-phenoxypyrido[3,2-e][1,2,4]triazolo[1,5-a]pyrimidin-5-yl)isonicotinohydrazide]	–	–
